Consider two molecules from patent US20180140679A1, “MODULATION OF AXL RECEPTOR ACTIVITY IN COMBINATION WITH CYTOREDUCTIVE THERAPY” (THE BOARD OF TRUSTEES OF THE LELAND STANFORD JUNIOR …, priority 2016, published 2018).

Test [1] deals with Axl and FLT3 phosphorylation in AML cells. Put plainly: Western blot of Axl and FLT3 phosphorylation in AML cells. Format: cell-based, human. An excerpt:
(§1) Cell lysates subjected to sodium dodecyl sulfate polyacrylamide gel electrophoresis followed by transfer to nitrocellulose membrane. The membranes were then probed with primary antibodies against total Axl (AF154, R&D Systems, INC., Minneapolis, Minn.), phospho-Axl (T702; #5724, CST, Danvers, Mass.), total Akt (#4691 CST, Danvers, Mass.), phosphor-Akt (#4060, CST, Danvers, Mass.), anti-MERTK (#ab52968, Abcam, Cambridge, Mass.), phospho-MERTK (#ab14921 Abcam, Cambridge, Mass.), anti-Tyro3 (#5585, CST, Danvers, Mass.), phospho-Tyro3 (#orb186274, Biorbyt LLC, Berkely, Calif.), Bcl-2 Family Antibody Sampler Kit (#9934, CST, Danvers, Mass.), anti-Chk2 (#sc-5278, Santa Cruz Biotech, INC., Santa Cruz, Calif.), anti-XRCC1 (#2735, CST, Danvers, Mass.), anti-γH2AX (Merck Millipore #05636, Darmstadt, Germany), anti-phospho-ATM (#ab81292, Abcam, Cambridge, Mass.), anti-ATM (#ab78, Abcam, Cambridge, Mass.), anti phospho-ATR (#2853, CST, Danvers, Mass.), anti-ATR (#2790, CST, Danvers, Mass.), anti-Phospho Chk1 (#12302, CST, Danvers, Mass.), anti-Phospho Chk2 (#2197, CST, Danvers, Mass.) and anti-RPA32 (#2208, CST, Danvers, Mass.) at 4° C. overnight. The blots were then washed and probed with HRP conjugated anti-goat (#sc-2020, Santa Cruz Biotech, INC., Santa Cruz, Calif.), or HRP conjugated anti-rabbit (#A16110, Thermo Fisher Scientific, Walthan, Mass.) as appropriate. The blots were developed with Bio-Rad Western C developing reagent (#170-5060 Bio-Rad, Hercules, Calif.) and visualized with Chemidoc digital imager (#1708280, Bio-Rad, Hercules, Calif.).

The test system of a further test is 4T1 luciferase cells. Format: in vivo. The source says: In this model, cells orthotopically implanted in the mammary fat pad generate primary masses that metastasize to the lungs.
Comparison of MYD1-72 Fc with clinical Axl. TKIs There are currently no FDA approved drugs targeting Axl, though several small molecule kinase inhibitors are undergoing clinical trials. BerGenBio's BGB324 (previously Rigel's R428) is the most advanced of these compounds, and the first to be developed prospectively as an Axl inhibitor. […] Furthermore, since TKI's and biologics are fundamentally very different, as are their mechanisms of action, a direct comparison would provide valuable insights into the potential of distinct therapeutic intervention strategies. […] Cells were implanted orthotopically in the mammary fat pad, and primary tumors were allowed to establish prior to treatment. […] This dose for the TKIs was chosen as significant activity has been previously reported at equivalent concentrations.
(§2) Treatment was initiated four days post-surgery.

Test [2] relates to phosphorylation of Axl, Mer, Tyro3, and downstream Akt signaling in OVCAR8 cells. Put plainly: Western blot of TAM receptor and Akt phosphorylation in OVCAR8 cells. Format: cell-based, human.
Source text: as §1
(Immunoblotting shows a protein as a band on a membrane.)

Test [3] concerns ovarian cancer cells. In words: Immunofluorescence of DNA damage foci in ovarian cancer cells. Format: cell-based. The protocol: (§3) 10,000 cells were plated in each well of glass chamber slide and allowed to attach overnight. […] Cells were then washed with PBS and fixed with 4% paraformaldehyde, lysed for 10 minutes and blocked with a 2% BSA and 0.1% PBS-Triton-X solution for 1 hour. After washes in PBS-Triton-X, cells were incubated with mouse anti-[…]H2AX, (#05-636, Merck Millipore, Darmstadt, Germany); rabbit anti-RAD51, (#PC130-100 UL Merck Millipore, Darmstadt, Germany); rabbit anti-53BP1, (# ab36823, Abcam, Cambridge, Mass.) overnight in a humidified chamber at 4 degrees. Cells were washed with PBS and incubated in secondary antibody anti-rabbit FITC (#65-6111 Thermo Fisher Scientific, Walthan, Mass. or anti-mouse FITC, (#62-6511, Thermo Fisher Scientific, Walthan, Mass.) for 1 hour at 37 degrees and counterstained with Prolong Mounting medium with DAPI. Positive foci intensity were calculated using imagine software Metamorph. EdU (5-ethynyl-2′-deoxyuridine) labeling and co-staining were carried out according to the manufacturer's instructions (#C10637, Thermo Fisher Scientific, Walthan, Mass.). γH2AX staining was performed as described above.
(§4) Cells were visualized using a Leica DM6000 B microscope with Leica Application Suite X software (Wetzlar, Germany). EdU was used at a concentration of 10 μM. EdU labeling was carried out for 1 hour in all cases, for conditions including drug treatments EdU was added during the last hour of treatment. Experiments were carried out in triplicate. Quantification of staining: Positive γH2AX staining refers to cells with over eight foci and pan-nuclear staining. For hydroxyurea (Hu) treated groups, γH2AX positive cells refers to cells where a pan-nuclear staining pattern (typically associated with replication stress) was observed.

The next test has as its system wild-type cell lines. Put plainly: Reverse phase protein array (RPPA). The following applies: continuously for seven days in low serum (1% FBS). Format: cell-based. The protocol: (§5) To further understand this relationship, we performed a reverse phase protein array (RPPA) on shAxl cell lines and wild-type cell lines treated with MYD1-72 Fc. […] In addition, we performed western blot analysis to examine expression levels of classical DNA damage response components, including total and phosphorylated ATM, ATR, CHK1, CHK2 and RPA32 (FIG. 5B) at four time points post MYD1-72 treatment.
The RPPA was performed by MD Anderson as described.

Test [4] concerns ATM, ATR, CHK1, CHK2 and RPA32 in ovarian cancer cells. In words: Western blot of DNA damage response components in ovarian cancer cells. Format: cell-based. As to conditions: low serum (0.1% FBS).
Source text: as §5, §1

The test system of test [5] is ovarian cancer cells. Put plainly: EdU labeling and γH2AX co-staining. Format: cell-based. The protocol:
as §3, §4

A further test has as its system OVCAR8. Put plainly: OVCAR8 intraperitoneal ovarian cancer model. Format: in vivo, mouse. As to conditions: MYD1-72 Fc 1 mg/kg daily, doxorubicin 2 mg/kg twice weekly, three weeks.
Source text: (§6) At this time, several mice were sacrificed at random to ensure engraftment of diffuse metastatic disease, a hallmark of the human condition. […] After three weeks of treatment, mice were sacrificed and tumor burden was quantified both by counting the number of visible lesions, as well as excising and weighing all diseased tissue.
as §2

The next test has as its system skov3.ip. Put plainly: skov3.ip intraperitoneal ovarian cancer model. Format: in vivo, mouse xenograft. As to conditions: MYD1-72 Fc 1 mg/kg daily, doxorubicin 2 mg/kg twice weekly, three weeks.
Source text: as §6, §2

Test [6] deals with LM-P orthotopic pancreatic cancer. In words: LM-P orthotopic pancreatic cancer model. As to conditions: immunohistochemistry.
Protocol: LMP cells derived from the KRAS/p53 metastatic mouse model were implanted subcutaneously into the flanks of mice and allowed to grow until they reached ˜500 mm^3 in size.
To establish orthotopic tumors, mice harboring subcutaneous tumors were sacrificed and tumors were isolated and cut into small fragments. Laparotomies were then performed and a tumor fragment was secured to the tail of the pancreas.
All procedures involving animals and their care and use were approved by the Institutional Animal Care and Usage Committee of Stanford University. For all in vivo studies, six week old, female nude (nu/nu) mice (Jackson Laboratory, Bar Harbor, Me.) were used. In all studies, animals displaying signs of morbidity were removed from the study immediately. […] Treatment was initiated four days post-inoculation for both studies. […] BGB324 (Selleckchem LLC, Houston, Tex.) and Foretinib (MedChem, Monmouth Junction, N.J.). Small molecules were administered twice daily via oral gavage. […] The orthotropic LM-P pancreatic adenocarcinoma model (a gift from Dr. Edgar Engleman at Stanford University, Stanford, Calif.) was established as previously described. Briefly, 1×10^6 cells were injected subcutaneously into the flanks of nude mice and grown for 2-3 weeks until they reached 500 mm^3. […]
For the next test, the target named is T1, human Gas6 (Homo sapiens, UniProt Q14393).
T1 sequence (Q14393 31-678): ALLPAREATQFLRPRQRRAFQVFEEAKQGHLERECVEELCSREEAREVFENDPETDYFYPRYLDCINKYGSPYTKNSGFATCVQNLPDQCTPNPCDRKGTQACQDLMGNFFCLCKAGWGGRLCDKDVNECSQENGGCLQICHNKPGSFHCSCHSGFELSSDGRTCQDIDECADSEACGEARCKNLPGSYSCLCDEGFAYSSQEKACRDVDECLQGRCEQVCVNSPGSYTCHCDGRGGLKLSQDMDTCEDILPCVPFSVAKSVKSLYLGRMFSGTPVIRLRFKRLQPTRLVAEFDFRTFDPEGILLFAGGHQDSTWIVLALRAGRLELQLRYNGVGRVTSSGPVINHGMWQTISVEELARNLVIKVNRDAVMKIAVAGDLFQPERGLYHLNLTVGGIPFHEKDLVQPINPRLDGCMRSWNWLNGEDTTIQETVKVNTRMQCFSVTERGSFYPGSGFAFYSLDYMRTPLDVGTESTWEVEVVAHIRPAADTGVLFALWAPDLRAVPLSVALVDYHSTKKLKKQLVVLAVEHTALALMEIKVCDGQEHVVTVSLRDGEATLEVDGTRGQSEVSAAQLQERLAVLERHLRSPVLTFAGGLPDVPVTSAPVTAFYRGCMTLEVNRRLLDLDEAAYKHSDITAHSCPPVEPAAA
In words: Kinetic Exclusion Assay (KinExA), Gas6-Axl binding, human Gas6. The procedure: (§7) Equilibrium binding and association rate constants for all Gas6-Axl interactions were measured on a KinExA3200 instrument (Sapidyne Instruments Inc. Boise, Id.) as previously described. For equilibrium binding studies, three independent titrations were completed for each Axl Ig1 or Axl Fc fusion unless otherwise noted. […] After the appropriate incubation time, reactions were flowed over MYD1 Fc coated beads and captured free Gas6 was probed using an anti-6×HIS Dylight 649 antibody (#200-343-382, Rockland Immunochemicals Inc., Pottstown, Pa.). Each sample was measured twice and data from the three independent equilibrium binding experiments were globally analyzed using n-curve analysis in the KinExA Pro 3.6.2 software (Sapidyne Instruments Inc. Boise, Id.) to obtain the Kd value. To analyze the association rate of the interactions, the direct inject method was used. For these experiments, 1 μM Axl was serially diluted 1:2.5, and equal volumes of each Axl sample and 500 nM Gas6 were briefly mixed and flowed over the capture beads. Free Gas6 was detected as described and the data was fit using the KinExA Pro 3.6.2 software to obtain the association rate (kon) of the interaction. The dissociation rate (koff) was calculated as the product of the Kd and the kon.
Background: A kinetic exclusion assay measures how much of one partner remains free in solution.

For the next test, the target named is T2, mouse Gas6 (Mus musculus, UniProt Q61592).
T2 sequence (Q61592 28-674): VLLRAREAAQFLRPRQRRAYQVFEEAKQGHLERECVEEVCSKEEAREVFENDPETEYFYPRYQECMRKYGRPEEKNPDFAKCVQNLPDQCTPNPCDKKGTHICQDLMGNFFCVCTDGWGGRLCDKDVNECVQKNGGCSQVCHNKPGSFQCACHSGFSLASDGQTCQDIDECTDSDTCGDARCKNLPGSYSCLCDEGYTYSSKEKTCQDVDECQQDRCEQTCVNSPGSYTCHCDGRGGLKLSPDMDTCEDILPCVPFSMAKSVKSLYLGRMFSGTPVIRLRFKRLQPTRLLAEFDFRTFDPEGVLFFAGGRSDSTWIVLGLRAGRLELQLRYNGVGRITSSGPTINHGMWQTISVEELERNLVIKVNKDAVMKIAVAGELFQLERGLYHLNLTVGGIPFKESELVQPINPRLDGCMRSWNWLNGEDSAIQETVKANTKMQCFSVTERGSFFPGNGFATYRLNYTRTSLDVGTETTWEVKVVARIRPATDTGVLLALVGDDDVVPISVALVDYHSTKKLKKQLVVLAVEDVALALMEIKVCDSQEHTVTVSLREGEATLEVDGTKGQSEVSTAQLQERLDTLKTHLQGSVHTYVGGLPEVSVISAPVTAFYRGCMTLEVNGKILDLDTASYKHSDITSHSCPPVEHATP
Put plainly: Kinetic Exclusion Assay (KinExA), Gas6-Axl binding, mouse Gas6. The protocol:
as §7

With “MYD1-72 Fc: Fc fusion of the second generation high-affinity Axl decoy receptor MYD1-72 (Gly32Ser, Ala72Val, Asp87Gly, Val92Ala, Gly127Arg)”, in test [1], the “Axl and FLT3 phosphorylation” value is “inhibited Axl and FLT3 phosphorylation”. Also, the lung metastatic disease result in the test with 4T1 luciferase cells (0.5 mg/kg iv twice a week, three weeks) is recorded as “significantly less metastatic disease than those treated with MYD1 Fc”. The “reduction in lung metastases compared to vehicle treated mice” value in the test on 4T1 luciferase cells (MYD1-72 Fc 1 mg/kg daily, TKIs 12.5 mg/kg twice daily, ex vivo bioluminescent imaging) stood at 71%. The “size of primary tumors” value with 4T1 luciferase cells (MYD1-72 Fc 1 mg/kg daily, TKIs 12.5 mg/kg twice daily, three weeks, vs control) is given as “significantly reduced the size of primary tumors”. Moreover, the “γH2AX positive cells in primary tumor” value with 4T1 luciferase cells (immunohistochemistry) is recorded as “significantly more γH2AX positive cells compared to all other treatment groups”. Further, in [2], the “pAxl and pAkt levels” value was “significantly reduced pAxl and pAkt levels”; the “pMer and pTyro3 levels” value is “pMer and pTyro3 remained relatively unchanged”. Besides, the γH2AX foci entry with ovarian cancer cells [3] (complete media, 0.1 μg or 10 μg) is on record as “showed no changes across treatments”. Moreover, the “53BP1 and RAD51 foci” value with ovarian cancer cells [3] (serum-limited conditions) is “increased the numbers of both 53BP1 and RAD51 foci”. Further, the “number of γH2AX foci” value in the test on ovarian cancer cells [3] (serum-limited conditions, vs untreated controls) is “significant increase in the number of γH2AX foci”. The “XRCC1/Chk2 and BAX/BID expression” value in the test with wild-type cell lines is reported as “highly upregulated”. Besides, the phospho-RPA32 level entry in [4] was “Elevated phospho-RPA32 level”. Further, in [4] (four time points), the “phospho-ATM and phospho-ATR” value is “significant induction of phospho-ATM and phospho-ATR at early time points”; the “phosphorylation of CHK1 and CHK2” value is “increased phosphorylation of both CHK1 and CHK2”. Moreover, in the test on ovarian cancer cells [5] (hydroxyurea in the presence and absence of MYD1-72 Fc), the “γH2AX positive cells in combination with hydroxyurea” value is recorded as “no additive effect was observed”. In the test on ovarian cancer cells [5] (treated group), the “non-S phase cells (EdU negative) positive for γH2AX” value amounted to 7% and the “γH2AX positive cells that were also in S phase/EdU positive” value was found to be 85%. The “reduction of tumor burden” value in the test on OVCAR8 came out at 95%. In addition, in the test with skov3.ip, the “decrease in tumor burden (by weight) vs controls” value is given as 51%. Besides, the “γH2AX staining (DNA damage) in primary tumor” value in test [6] was “small effect on DNA damage”.

B1: MYD1 Ig1: first generation high affinity Axl Ig1 variant containing four mutations that conferred improved binding to Gas6 (protein)
chain: APRGTQAEESPFVSNPGNITGARGLTGTLRCQLQVQGEPPEVHWLRDGQILELADSTQTQVPLGEDEQGDWIVASQLRITSLQLSDTGQYQCLVFLGHQTFVSQPGYVRLEGLP
modifications: left off: small tags and cut ends
Consider B1, for which, in the test with human Gas6 (Axl Ig1 variants, read-out: Kd hGas6), the Kd (in general, a measure of binding affinity in units of concentration) is 2.7 pM. For the same molecule, in the test with human Gas6 (calculated as the product of the Kd and the kon), the koff is given as 4.0 10^−5 s^−1. In the test with human Gas6 (direct inject method), the kon is on record as 1.6 10^7 M^−1 s^−1. The “binding to mouse Gas6” value with mouse Gas6 was “no increase in binding to mouse Gas6”.
